The source of these data is patent publication US11590139B2, “Substituted aminopurine compounds, compositions thereof, and methods of treatment therewith” (Signal Pharmaceuticals, LLC, priority 2014, dated 2023).

One assay relates to Lox-IMVI melanoma cell line. Kind of assay: Lox-IMVI anti-proliferative assay (growth inhibition, Cell Titer-Glo). It counts as cell-based, human. The conditions noted are these: Homo sapiens; IC50 activity level in the cell-based Lox-IMVI anti-proliferative assay; read-out: Activity. Put shortly: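 Cells grown in RPMI + 10% FBS were exposed to compound at 0.5 nM to 10 μM (10-point, 3-fold dilution, duplicate, 0.2% DMSO final) for 72 h at 37 °C, 5% CO2. Viability was read by ATP luminescence at t0 and 72 h. IC50 came from a four-parameter logistic fit normalized to DMSO control.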
On the technique in general: ATP-based viability assays read luminescence as a measure of living cells.
`N#Cc1cc(F)c(Nc2nc3cnc(NC4CCOCC4)nc3n2[C@H]2CC[C@@H](C(N)=O)CC2)c(Cl)c1` [Example 308, (1s,4s)-4-(8-(2-chloro-4-cyano-6-fluorophenylamino)-2-(tetrahydro-2H-pyran-4-ylamino)-9H-purin-9-yl)cyclohexanecarboxamide]: the IC50 is under 250 nM.
On the same count and under the same terms, then `NC(=O)[C@H]1CC[C@@H](n2c(Nc3c(Cl)cc(F)cc3Cl)nc3cnc(N[C@H]4CCOC4)nc32)CC1` [Example 243, (1R,4s)-4-(8-(2,6-dichloro-4-fluorophenylamino)-2-((S)-tetrahydrofuran-3-ylamino)-9H-purin-9-yl)cyclohexanecarboxamide], with 500 to 1000 nM; and `NC(=O)[C@H]1CC[C@@H](n2c(Nc3c(F)cc(F)cc3F)nc3cnc(N[C@@H]4CC[C@@H](O)C4)nc32)CC1` [Example 207, (1S,4s)-4-(2-((1R,3R)-3-hydroxycyclopentylamino)-8-(2,4,6-trifluorophenylamino)-9H-purin-9-yl)cyclohexanecarboxamide], with over 1000 nM.
The same measure, in the same setting: the figure for `C[C@@H](CO)Nc1ncc2nc(Nc3c(F)cc(Cl)cc3Cl)n([C@H]3CC[C@@H](C(N)=O)CC3)c2n1` [Example 135, (1R,4s)-4-(8-(2,4-dichloro-6-fluorophenylamino)-2-((S)-1-hydroxypropan-2-ylamino)-9H-purin-9-yl)cyclohexanecarboxamide] is under 250 nM.
Still for that read-out and setting: then `NC(=O)[C@H]1CC[C@@H](n2c(Nc3c(F)cccc3F)nc3cnc(N[C@H]4CC[C@H](O)C4)nc32)CC1` [Example 326, (1R,4s)-4-(8-(2,6-difluorophenylamino)-2-((1S,3S)-3-hydroxycyclopentylamino)-9H-purin-9-yl)cyclohexanecarboxamide], with over 1000 nM; and `NC(=O)[C@H]1CC[C@@H](n2c(Nc3c(Cl)cc(F)cc3Cl)nc3cnc(NC4CC5(COC5)C4)nc32)CC1` [Example 193, (1s,4s)-4-(2-(2-oxaspiro[3.3]heptan-6-ylamino)-8-(2,6-dichloro-4-fluorophenylamino)-9H-purin-9-yl)cyclohexanecarboxamide], with over 1000 nM; and `CC1(C)CC[C@@H](Nc2ncc3nc(Nc4c(F)ccc(Cl)c4F)n([C@H]4CC[C@@H](C(N)=O)CC4)c3n2)C[C@H]1O` [Example 390, (1S,4s)-4-(8-(3-chloro-2,6-difluorophenylamino)-2-((1R,3R)-3-hydroxy-4,4-dimethylcyclohexylamino)-9H-purin-9-yl)cyclohexanecarboxamide], with over 1000 nM.
`N#Cc1cc(Cl)c(Nc2nc3cnc(NC4CCCC4)nc3n2[C@H]2CC[C@@H](C(N)=O)CC2)c(Cl)c1` [Example 367, (1s,4s)-4-(2-(cyclopentylamino)-8-(2,6-dichloro-4-cyanophenylamino)-9H-purin-9-yl)cyclohexanecarboxamide]: the IC50 was under 250 nM.
Still for that read-out and setting: the figure for `NC(=O)[C@H]1CC[C@@H](n2c(Nc3c(F)cc(F)cc3F)nc3cnc(N[C@H]4COC[C@@H]4O)nc32)CC1` [Example 311, (1R,4s)-4-(2-((3S,4R)-4-hydroxytetrahydrofuran-3-ylamino)-8-(2,4,6-trifluorophenylamino)-9H-purin-9-yl)cyclohexanecarboxamide] is over 1000 nM; for `CC(C)(C)OC(=O)N1CCC[C@@H](Nc2ncc3nc(Nc4c(F)cc(Cl)cc4F)n([C@H]4CC[C@@H](C(N)=O)CC4)c3n2)C1` [Example 162, (R)-tert-butyl 3-(9-((1s,4S)-4-carbamoylcyclohexyl)-8-(4-chloro-2,6-difluorophenylamino)-9H-purin-2-ylamino)piperidine-1-carboxylate] it is over 1000 nM; for `NC(=O)[C@H]1CC[C@@H](n2c(Nc3c(Cl)cc(F)cc3Cl)nc3cnc(NC4CCCC4)nc32)CC1` [Example 121, (1s,4s)-4-(2-(cyclopentylamino)-8-(2,6-dichloro-4-fluorophenylamino)-9H-purin-9-yl)cyclohexanecarboxamide] it is 500 to 1000 nM.

Still in this assay, the particulars now being: Homo sapiens; Lox-IMVI anti-proliferative assay, IC50 activity level; read-out: Activity.
As to `C[C@]1(C(N)=O)CC[C@@H](n2c(Nc3c(Cl)cc(F)cc3Cl)nc3cnc(NC4CCC(F)(F)CC4)nc32)CC1` [Example 526, (1s,4s)-4-(8-(2,6-dichloro-4-fluorophenylamino)-2-(4,4-difluorocyclohexylamino)-9H-purin-9-yl)-1-methylcyclohexanecarboxamide], the IC50 was under 250 nM.
Still for that read-out and setting: the figure for `C[C@]1(C(N)=O)CC[C@@H](n2c(Nc3c(F)cc(F)cc3Cl)nc3cnc(NC4CC(F)(F)C4)nc32)CC1` [Example 579, (1s,4s)-4-(8-(2-chloro-4,6-difluorophenylamino)-2-(3,3-difluorocyclobutylamino)-9H-purin-9-yl)-1-methylcyclohexanecarboxamide] is under 250 nM.
On the same count and under the same terms, then `C[C@]1(O)CCC[C@@H](Nc2ncc3nc(Nc4c(F)cc(Cl)cc4F)n([C@H]4CC[C@@H](C(N)=O)CC4)c3n2)C1` [Example 426, (1S,4s)-4-(8-(4-chloro-2,6-difluorophenylamino)-2-((1R,3S)-3-hydroxy-3-methylcyclohexylamino)-9H-purin-9-yl)cyclohexanecarboxamide], with over 1000 nM; and `N#Cc1cc(Cl)c(Nc2nc3cnc(NC4CC5(COC5)C4)nc3n2[C@H]2CC[C@@H](C(N)=O)CC2)c(Cl)c1` [Example 571, (1s,4s)-4-(2-(2-oxaspiro[3.3]heptan-6-ylamino)-8-(2,6-dichloro-4-cyanophenylamino)-9H-purin-9-yl)cyclohexanecarboxamide], with 250 to 500 nM; and `C[C@]1(C(N)=O)CC[C@H](n2c(Nc3c(Cl)cc(F)cc3Cl)nc3cnc(NC4CCCC4)nc32)CC1` [Example 493, (1r,4r)-4-(2-(cyclopentylamino)-8-(2,6-dichloro-4-fluorophenylamino)-9H-purin-9-yl)-1-methylcyclohexanecarboxamide], with over 1000 nM.
Still for that read-out and setting: then `NC(=O)[C@H]1CC[C@@H](n2c(Nc3c(Cl)cc(Cl)cc3Cl)nc3cnc(N[C@H]4CCC[C@H](O)C4)nc32)CC1` [Example 461, (1R,4s)-4-(2-((1S,3S)-3-hydroxycyclohexylamino)-8-(2,4,6-trichlorophenylamino)-9H-purin-9-yl)cyclohexanecarboxamide], with over 1000 nM; and `C[C@]1(C(N)=O)CC[C@@H](n2c(Nc3c(F)cc(F)cc3Cl)nc3cnc(NC4CCC(F)(F)CC4)nc32)CC1` [Example 527, (1s,4s)-4-(8-(2-chloro-4,6-difluorophenylamino)-2-(4,4-difluorocyclohexylamino)-9H-purin-9-yl)-1-methylcyclohexanecarboxamide], with under 250 nM.
With `N#Cc1cc(Cl)c(Nc2nc3cnc(NC4CC(F)(F)C4)nc3n2[C@H]2CC[C@@H](C(N)=O)CC2)c(Cl)c1` [Example 399, (1s,4s)-4-(8-(2,6-dichloro-4-cyanophenylamino)-2-(3,3-difluorocyclobutylamino)-9H-purin-9-yl)cyclohexanecarboxamide], the IC50 was 250 to 500 nM.
Still for that read-out and setting: the figure for `N#Cc1cc(F)c(Nc2nc3cnc(N[C@@H]4CCOC4)nc3n2[C@H]2CC[C@@H](C(N)=O)CC2)c(Cl)c1` [Example 520, (1S,4s)-4-(8-(2-chloro-4-cyano-6-fluorophenylamino)-2-((R)-tetrahydrofuran-3-ylamino)-9H-purin-9-yl)cyclohexanecarboxamide] is 250 to 500 nM; for `NC(=O)[C@H]1CC[C@@H](n2c(Nc3c(Cl)cc(F)cc3Cl)nc3cnc(N[C@H]4CCCC[C@H]4O)nc32)CC1` [Example 516, (1R,4s)-4-(8-(2,6-dichloro-4-fluorophenylamino)-2-((1S,2R)-2-hydroxycyclohexylamino)-9H-purin-9-yl)cyclohexanecarboxamide] it is over 1000 nM.

Staying with this assay, now noted: Homo sapiens; Lox-IMVI melanoma cell line, anti-proliferative assay; read-out: Activity (IC50 activity level).
For the compound `CS(=O)(=O)C1CC(Nc2ncc3nc(Nc4c(F)cc(Cl)cc4F)n([C@H]4CC[C@@H](C(N)=O)CC4)c3n2)C1` (stereo partly drawn) [Example 736, (1s,4s)-4-(8-(4-chloro-2,6-difluorophenylamino)-2-(3-(methylsulfonyl)cyclobutylamino)-9H-purin-9-yl)cyclohexanecarboxamide], the IC50 is over 1000 nM.
Regarding `COC(=O)N1CCC[C@@H](Nc2ncc3nc(Nc4c(F)cc(C#N)cc4Cl)n([C@H]4CC[C@@H](C(N)=O)CC4)c3n2)C1` [Example 709, (R)-methyl 3-(9-((1s,4S)-4-carbamoylcyclohexyl)-8-(2-chloro-4-cyano-6-fluorophenylamino)-9H-purin-2-ylamino)piperidine-1-carboxylate], the IC50 lay in the range of 500 to 1000 nM.
With `CS(=O)(=O)C1CC(Nc2ncc3nc(Nc4c(Cl)cc(C(F)(F)F)cc4Cl)n([C@H]4CC[C@@H](C(N)=O)CC4)c3n2)C1` (stereo partly drawn) [Example 735, (1s,4s)-4-(8-(2,6-dichloro-4-(trifluoromethyl)phenylamino)-2-(3-(methylsulfonyl)cyclobutylamino)-9H-purin-9-yl)cyclohexanecarboxamide], the IC50 is over 1000 nM.
As for `C[C@]1(C(N)=O)CC[C@@H](n2c(Nc3c(Cl)cc(C#N)cc3Cl)nc3cnc(NC4CCC4)nc32)CC1` [Example 599, (1s,4s)-4-(2-(cyclobutylamino)-8-(2,6-dichloro-4-cyanophenylamino)-9H-purin-9-yl)-1-methylcyclohexanecarboxamide], the IC50 was under 250 nM.
Same read-out and setting: the figure for `CNC(=O)N1CCC[C@@H](Nc2ncc3nc(Nc4c(Cl)cc(C(F)(F)F)cc4Cl)n([C@H]4CC[C@@H](C(N)=O)CC4)c3n2)C1` [Example 796, (R)-3-(9-((1s,4S)-4-carbamoylcyclohexyl)-8-(2,6-dichloro-4-(trifluoromethyl)phenylamino)-9H-purin-2-ylamino)-N-methylpiperidine-1-carboxamide] is over 1000 nM.
The same measure, in the same setting: the figure for `NC(=O)[C@H]1CC[C@@H](n2c(Nc3c(Cl)cc(Cl)cc3Cl)nc3cnc(N[C@@H]4CCCN(c5ccccc5)C4)nc32)CC1` [Example 743, (1S,4s)-4-(2-((R)-1-phenylpiperidin-3-ylamino)-8-(2,4,6-trichlorophenylamino)-9H-purin-9-yl)cyclohexanecarboxamide] is over 1000 nM.
